Source: paper PMC9147790, “Synthesis of Coumarin Derivatives: A New Class of Coumarin-Based G Protein-Coupled Receptor Activators and Inhibitors” (Polymers, 2022)
Read-outs that look alike come from different tables or passages of the source.

Legend:
mouse GPCRs [1] = assay: DAS-ELISA evaluation of coumarin derivatives on GPCRs (inhibition/activation); assay type: biochemical; details: for GPCR activation potency (in words) / GPCRs-inhibitory activity (in words): DAS-ELISA; for IC50: concentration achieving 50% inhibition of the GPCRs' standard at 10 ng/L; for IC50 / EC50: mean of two independent experiments ± SD; for EC50: concentration achieving 50% activation of the GPCRs' standard at 10 ng/L; for IC50(nM) (% INHIBITION): % inhibition (inhibition rate): value in parentheses beside the > IC50 bound, daphnetin: at 10 ng/L; for EC50(nM) (% Activation): % Activation: value in parentheses beside the > EC50 bound
Procedure: All chemicals and reagents used in the study were commercially available and used as received. Thin-layer chromatography (TLC) and column chromatography (300–400 mesh) were achieved using instruments from Qingdao Makall Group Co., Ltd. (Qingdao, China). ^1H NMR and ^13C NMR spectra were recorded on a Bruker DRX-500 (^1H/^13C, 500 MHz/125 MHz) spectrometer (Bruker, Bremerhaven, Germany) or a JEOL 400YH (^1H/^13C, 400 MHz/100 MHz) and chemical shifts were given in δ with the TMS as an internal reference. The ESI-MS spectroscopy was measured on an Advantage Max LCQ Thermo-Finnigan mass spectrometer. The ELISA kit was purchased from Shanghai Fusheng Industry Co., Ltd. (Shanghai, China), and the standard in the kit was Class B GPCRs.
All the synthesized coumarin derivatives were dissolved in 500 μL of DMSO, and then diluted to 1 mL by distilled water to get 1 mg/mL of stock solution. Finally, the stock solution was diluted to 1000 μg/L, 10 μg/L, 0.1 μg/L, and 0.001 μg/L in turn and stored in a refrigerator at 4 ℃ for reserve.
The inhibitory/activation activities of all of the synthesized coumarin derivatives on GPCRs were evaluated through incubation using mouse GPCRs provided by the ELISA kit (Shanghai Fusheng Industrial Co., Ltd. Shanghai, China). Other components of the kit included a water solution (30 times concentrated), a HRP conjunction reagent, a sample diluent, a standard diluent, standard, a chromogenic reagent A, a chromogenic reagent B, and a stop solution.
The 15 μL of stock solution and 15 μL of diluted standard solution were thoroughly mixed and incubated at 37 ℃ for 10 mins to prepare a reaction solution. The assay was conducted according to the kit protocol, that is, by adding the 25 μL of reaction solution to a 96-well enzyme-labeled plate containing solid phase anti-GPCRs antibodies. Then the plate was incubated for 30 mins at 37 ℃. Then, 25 μL of Chromogener A and 25 μL of Chromogener B were then added to react. Finally, 25 μL of the termination solution was added to each well to terminate the reaction and the mixture was fully mixed. Derivatives were tested in four different concentrations: 10 ng/L, 1 ng/L, […], and 10 μg/L. A diluent was prepared, dissolved and diluted with the other components of the kit according to the instructions in the kit, and a termination solution was added to the reaction. Then, the OD value was obtained by a microplate reader in 15 mins. All the derivatives were set into two independent experimental groups, and the inhibition of GCPRs, which was expressed as a percentage, was based on these groups.
Inhibition rate = [OD(positive) − OD(test compound)]/[OD(positive) − OD(blank)] ∗ 100%.
IC50/EC50 were obtained from Modified Karber formula [66] as the following: lgρ=Xm−IP−3−Pm−Pn/4
ρ: Concentration of compounds; Xm: Maximum dose; I = (Minimum inhibition rate)/Adjacent dose.
P: Sum of inhibition rates; Pm: Maximum inhibition rate; Pn: Minimum inhibition rate.
All values are the mean of two independent experiments ± SD.

mouse GPCRs [2] = system: mouse GPCRs; design: method as in PMID 33142412; details: earlier work shown in Figure 2; cited from earlier work

Row | Molecule | IC50 (mouse GPCRs [1]) [nM] | EC50 (mouse GPCRs [1]) [nM] | also measured
1 | CCCc1cc(=O)oc2c(O)c(O)ccc12 [Derivative 5, 7,8-Dihydroxy-4-propyl-2H-chromen-2-one] | 3.77 ± 0.58 |  | GPCR activation potency (in words) (mouse GPCRs [1]): completely lost their GPCRs-activation potency
2 | CCc1cc(=O)oc2c(O)c(O)ccc12 [Derivative 4, 4-Ethyl-7,8-dihydroxy-2H-chromen-2-one] | 0.15 ± 0.01 |  | GPCR activation potency (in words) (mouse GPCRs [1]): completely lost their GPCRs-activation potency
3 | Cc1cc(=O)oc2cc(O)ccc12 [Derivative 9, 7-Hydroxy-4-methyl-2H-chromen-2-one] | 1.25 | 1.25 ± 0.89 | GPCRs-inhibitory activity (in words) (mouse GPCRs [1]): no GPCRs-inhibitory activity
4 | O=c1cc(C(F)(F)F)c2ccc(O)cc2o1 [Derivative 13, 7-Hydroxy-4-(trifluoromethyl)-2H-chromen-2-one] | 7.75 ± 7.23 |  | 
5 | CCc1c(C)c2ccc(O)cc2oc1=O [Derivative 11, 3-Ethyl-7-hydroxy-4-methyl-2H-chromen-2-one] |  | 1.28 ± 1.07 | 
6 | COc1cc(=O)oc2cc(O)ccc12 [Derivative 10, 7-Hydroxy-4-methoxy-2H-chromen-2-one] | > 48.5 |  | IC50(nM) (% INHIBITION): % inhibition (inhibition rate) (mouse GPCRs [1]): 33.58%
7 | CC(=O)Oc1ccc2c(CCl)cc(=O)oc2c1OC(C)=O [Derivative 7, 4-(Chloromethyl)-2-oxo-2H-chromene-7,8-diyl diacetate] | 0.02 ± 0.01 |  | GPCR activation potency (in words) (mouse GPCRs [1]): no GPCR activation potency
8 | CCC(=O)Oc1ccc2c(CCl)cc(=O)oc2c1OC(=O)CC [Derivative 8, 4-(Chloromethyl)-2-oxo-2H-chromene-7,8-diyl dipropionate] | 6.86 ± 0.04 |  | GPCR activation potency (in words) (mouse GPCRs [1]): no GPCR activation potency
9 | Cc1cc(=O)oc2cc(Oc3ccnc(Cl)n3)ccc12 [Derivative 21, 7–((2–chloropyrimidin–4–yl)oxy)–4–methyl–2H–chromen–2–one] | 0.02 | 0.02 ± 0.01 | 
10 | Cc1c(Cl)c(=O)oc2cc(O)ccc12 [Derivative 14, 3-Chloro-7-hydroxy-4-methyl-2H-chromen-2-one] |  | 0.03 ± 0.02 | 
11 | Cc1c(F)c(=O)oc2cc(O)ccc12 [Derivative 16, 3-Fluoro-7-hydroxy-4-methyl-2H-chromen-2-one] |  | 0.24 ± 0.21 | 
12 | O=c1cc(-c2ccccc2)c2ccc(O)c(O)c2o1 [Derivative 3, 7,8-Dihydroxy-4-phenyl-2H-chromen-2-one] |  | > 43.8 | EC50(nM) (% Activation): % Activation (mouse GPCRs [1]): 35.75%
13 | Cc1cc(=O)oc2c(O)c(O)ccc12 [4a, reference compound] |  | 2.65 ± 0.25 | 
14 | O=c1ccc2ccc(O)c(O)c2o1 [Daphnetin, daphnetin, reference compound] | > 10 |  | IC50(nM) (% INHIBITION): % inhibition (inhibition rate) (mouse GPCRs [1]): 49.43%; EC50 (mouse GPCRs [2]): > 10 nM; Inhibition rate (in Figure 2) (mouse GPCRs [2]): 49.43%
15 | O=c1cc(C(F)F)c2ccc(O)c(O)c2o1 [Derivative 2, 4-(Difluoromethyl)-7,8-dihydroxy-2H-chromen-2-one] |  | > 43.8 | EC50(nM) (% Activation): % Activation (mouse GPCRs [1]): 39.82%
16 | O=c1cc(CCl)c2ccc(O)cc2o1 [Derivative 19, 4-(Chloromethyl)-7-hydroxy-2H-chromen-2-one] |  | 4.22 ± 3.49 | GPCRs-inhibitory activity (in words) (mouse GPCRs [1]): no GPCRs-inhibitory activity
17 | CCc1cc(=O)oc2cc(O)ccc12 [Derivative 18, 4-Ethyl-7-hydroxy-2H-chromen-2-one] |  | 0.03 ± 0.01 | GPCRs-inhibitory activity (in words) (mouse GPCRs [1]): no GPCRs-inhibitory activity
18 | CC(=O)Oc1ccc2c(C)c(Cc3ccccc3)c(=O)oc2c1 [Derivative 24, 3-Benzyl-4-methyl-2-oxo-2H-chromen-7-yl acetate] |  | > 35.7 | EC50(nM) (% Activation): % Activation (mouse GPCRs [1]): 32.82%
19 | COc1ccc2c(C)c(Cc3ccccc3)c(=O)oc2c1 [Derivative 22, 3-Benzyl-7-methoxy-4-methyl-2H-chromen-2-one] | 9.67 ± 2.59 |  | 
20 | O=c1cc(-c2ccccc2)c2ccc(O)cc2o1 [Derivative 20, 7-Hydroxy-4-phenyl-2H-chromen-2-one] |  | > 42 | EC50(nM) (% Activation): % Activation (mouse GPCRs [1]): 34.41%
21 | Cc1c(C#N)c(=O)oc2cc(O)ccc12 [Derivative 17, 7-Hydroxy-4-methyl-2-oxo-2H-chromene-3-carbonitrile] |  | 0.03 ± 0.02 | 
22 | O=c1cc(-c2ccc(F)cc2)c2ccc(O)c(O)c2o1 [Derivative 1, 4-(4-Fluorophenyl)-7,8-dihydroxy-2 H-chromen-2-one] |  | 0.56 ± 0.02 | 
23 | Cc1c(Cc2ccccc2)c(=O)oc2cc(O)ccc12 [Derivative 15, 3-Benzyl-7-hydroxy-4-methyl-2H-chromen-2-one] | 3.6 | 3.6 ± 0.11 | 
24 | 4-Benzyl-7-ethoxy-4-methyl-2H-chromen-2-one [Derivative 23] | 0.76 ± 0.7 |  | 
25 | Cc1c(C)c2ccc(O)cc2oc1=O [Derivative 12, 7-Hydroxy-3,4-dimethyl-2H-chromen-2-one] |  | 1.07 ± 0.33 | 
26 | CCC(=O)Oc1ccc2c(C)c(Cc3ccccc3)c(=O)oc2c1 [Derivative 25, 3-Benzyl-4-methyl-2-oxo-2H-chromen-7-yl propionate] |  | 12 ± 9.47 | 
